“And” between values parts separate entries of the source, which are not always exact repeats. Identical values can stand only once.

2 molecules from publication PMC11968843, “Sulphostin-inspired N-phosphonopiperidones as selective covalent DPP8 and DPP9 inhibitors” (Nature Communications, 2025) can be followed below.

Experiment [1] concerns the target T1, DPP9-BRCA2 interaction in HeLa wild-type cells (Homo sapiens, UniProt Q86TI2).
T1 construct: endogenous in cells; host or cells: HeLa wild-type (HeLa Flp-In T-REx WT)
The experiment in a line: Proximity ligation assay (PLA) of MMC-induced DPP9-BRCA2 interaction. Format: cell-based. The conditions noted are these: for 95% confidence interval of difference: compound vs. +Ctrl., Unpaired two-sided t-test. The protocol:
HeLa wild-type cells were cultured as described above. Cells were seeded on coverslips in 24‐well plates (Greiner, Germany) at a concentration of 2 × 10^4 cells per well (37 °C and 5% CO2). To induce a DPP9-BRCA2 interaction, 300 nM MMC was added to the cells 8 h after seeding and for a total incubation time of 24 h. Indicated Inhibitors (10 µM) were added 1 h prior to cell fixation. Cells were fixed with 4% formaldehyde in PBS for 10 min and permeabilized with 0.2% Triton‐X‐100 in PBS for 5 min. The proximity ligation assay (PLA) was performed using the Duolink in situ PLA Kit (Sigma Aldrich, USA). Briefly, cells were washed with PBS and blocked with Duolink Blocking solution for 60 min at 37 °C. […] Antibody control coverslips were treated with only one primary antibody to estimate background staining in each experiment. Coverslips were washed and treated with PLA reagents according to the manufacturers protocol. Cells were mounted in DAKO with DAPI fluorescent mounting medium and analyzed using an LSM 710 confocal microscope, 63x NA 1.4 oil immersion objective (Zeiss, Germany). Images were processed using Zen black v2.3 (Zeiss, Germany) and subsequently analyzed using the Duolink ImageTool Setup 1.0.1.2 (Sigma Aldrich, USA).

In the next experiment the target is T2, PREP (Homo sapiens, UniProt P48147).
T2 construct: purchased Sigma Aldrich, USA
T2 sequence (P48147 1-710): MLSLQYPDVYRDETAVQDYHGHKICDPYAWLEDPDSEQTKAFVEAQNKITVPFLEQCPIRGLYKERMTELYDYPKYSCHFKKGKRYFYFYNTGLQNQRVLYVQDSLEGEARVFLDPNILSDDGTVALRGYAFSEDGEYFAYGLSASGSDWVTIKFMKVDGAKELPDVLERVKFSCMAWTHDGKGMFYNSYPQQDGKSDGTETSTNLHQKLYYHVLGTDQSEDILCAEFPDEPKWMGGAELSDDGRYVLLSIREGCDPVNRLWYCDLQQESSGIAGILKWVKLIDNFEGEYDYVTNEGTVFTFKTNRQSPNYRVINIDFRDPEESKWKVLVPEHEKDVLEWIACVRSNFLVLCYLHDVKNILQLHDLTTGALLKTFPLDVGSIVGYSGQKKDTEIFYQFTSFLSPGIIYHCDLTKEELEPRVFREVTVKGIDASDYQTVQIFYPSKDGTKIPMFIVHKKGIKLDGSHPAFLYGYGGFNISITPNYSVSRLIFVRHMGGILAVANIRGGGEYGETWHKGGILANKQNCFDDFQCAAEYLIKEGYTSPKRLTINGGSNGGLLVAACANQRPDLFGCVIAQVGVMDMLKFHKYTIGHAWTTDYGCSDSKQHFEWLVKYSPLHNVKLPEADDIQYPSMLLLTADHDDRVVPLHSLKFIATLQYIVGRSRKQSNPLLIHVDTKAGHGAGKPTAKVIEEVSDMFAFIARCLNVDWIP
Description: PREP biochemical inhibition assay (GP-AMC substrate, IC50). The conditions noted are these: for IC50: GP-AMC 2 mM, 10 nM enzyme, 45 min pre-incubation at 30 °C; for PREP activity: individual replicates. As for the experimental part:
Enzyme activity of DPP4, DPP8, DPP9 (Proteros Biostructures GmbH, Germany) and PREP (Sigma Aldrich, USA) was determined by measuring the initial velocity of AMC release from the fluorogenic substrate GP-AMC (Sigma Aldrich, USA) using a Tecan Spark® 10 M multimode microplate reader (Tecan Group Ltd., Switzerland) in activity buffer (20 mM HEPES/KOH pH 7.3, 110 mM potassium acetate, 2 mM Mg acetate, 0.5 mM EGTA, 0.02% Tween 20, supplemented with 1 mM DTT) and a final volume of 20 μL for maximal 60 min at 30 °C. Prior to activity measurement, 10 nM enzyme was incubated for 45 min at 30 °C and gentle shaking with the inhibitor compounds in concentrations ranging from 0 to 100 μM. The compounds were dissolved in DMSO and diluted in activity buffer (final DMSO concentration: 1%). […]. IC50 values were calculated using Graph-Pad Prism v10.2.3 using the equation: [Inhibitor] vs. response—Variable slope (four parameters). All measurements were performed in triplicates and error bars represent standard errors of the fit.

The target in experiment [2] is T3, HEK293 cell lysates (proteome-wide targets of probe 9) (Homo sapiens, UniProt P05388).
T3 construct: endogenous in cells; host or cells: HEK293 cell lysate
Description: Competitive ABPP / direct target identification with alkyne probe 9 in HEK293 cell lysates. The class given is binding, H. sapiens. As to conditions: protein RPLP0;RPLP0P6.

The target of experiment [3] is T4, HEK293 cell lysates (proteome-wide targets of probe 9) (Homo sapiens, UniProt P0DMV8).
T4 construct: endogenous in cells; host or cells: HEK293 cell lysate
T4 sequence (P0DMV8 whole entry): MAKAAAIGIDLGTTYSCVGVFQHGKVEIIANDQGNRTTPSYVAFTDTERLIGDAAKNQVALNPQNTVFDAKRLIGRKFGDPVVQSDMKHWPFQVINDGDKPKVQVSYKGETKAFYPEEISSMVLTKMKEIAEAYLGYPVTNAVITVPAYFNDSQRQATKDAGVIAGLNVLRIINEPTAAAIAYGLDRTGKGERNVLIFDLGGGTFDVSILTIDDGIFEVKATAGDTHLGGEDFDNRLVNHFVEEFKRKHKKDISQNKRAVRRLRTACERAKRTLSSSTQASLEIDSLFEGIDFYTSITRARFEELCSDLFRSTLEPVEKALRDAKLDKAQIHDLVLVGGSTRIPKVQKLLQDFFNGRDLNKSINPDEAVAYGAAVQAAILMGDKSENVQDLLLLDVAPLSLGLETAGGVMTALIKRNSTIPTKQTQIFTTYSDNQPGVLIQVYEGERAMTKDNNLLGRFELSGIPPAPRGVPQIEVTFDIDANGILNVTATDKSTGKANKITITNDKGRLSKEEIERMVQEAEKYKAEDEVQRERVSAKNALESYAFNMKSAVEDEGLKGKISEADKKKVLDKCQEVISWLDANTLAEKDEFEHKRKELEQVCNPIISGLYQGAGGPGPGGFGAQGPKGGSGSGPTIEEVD
The experiment is described as above. The class given is binding, H. sapiens. As to conditions: protein HSPA1A;HSPA1B.

T1 sequence (Q86TI2 whole entry): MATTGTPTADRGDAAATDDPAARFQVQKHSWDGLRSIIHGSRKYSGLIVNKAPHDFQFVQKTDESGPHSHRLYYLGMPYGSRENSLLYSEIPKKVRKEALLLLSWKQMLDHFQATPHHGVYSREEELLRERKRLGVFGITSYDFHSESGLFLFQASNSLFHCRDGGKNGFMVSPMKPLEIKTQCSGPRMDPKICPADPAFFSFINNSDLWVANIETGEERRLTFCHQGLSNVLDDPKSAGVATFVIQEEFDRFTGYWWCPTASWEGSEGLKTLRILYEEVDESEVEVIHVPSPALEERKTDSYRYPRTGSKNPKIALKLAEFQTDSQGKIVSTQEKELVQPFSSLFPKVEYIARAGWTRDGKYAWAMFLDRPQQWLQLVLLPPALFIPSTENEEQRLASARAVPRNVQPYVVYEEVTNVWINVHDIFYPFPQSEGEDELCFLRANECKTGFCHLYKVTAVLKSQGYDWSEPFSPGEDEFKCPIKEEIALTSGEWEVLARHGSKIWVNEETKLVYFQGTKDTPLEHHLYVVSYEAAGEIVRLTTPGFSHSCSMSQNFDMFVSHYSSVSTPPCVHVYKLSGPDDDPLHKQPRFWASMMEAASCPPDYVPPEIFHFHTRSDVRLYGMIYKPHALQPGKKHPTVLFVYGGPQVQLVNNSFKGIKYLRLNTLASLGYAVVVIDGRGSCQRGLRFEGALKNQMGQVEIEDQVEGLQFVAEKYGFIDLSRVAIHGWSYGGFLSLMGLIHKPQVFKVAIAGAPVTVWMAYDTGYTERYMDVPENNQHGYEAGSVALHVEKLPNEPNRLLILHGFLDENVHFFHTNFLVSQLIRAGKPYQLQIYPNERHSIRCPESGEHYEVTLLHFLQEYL

As to `CCCCCc1ccc(SCCP(=O)(OCC)N2CCC[C@H](N)C2=O)cc1.O=C(O)C(F)(F)F` (stereo partly shown) [Compound 16], the “95% confidence interval of difference” value in experiment [1] (Figure 5c) is recorded as -75,96 to -55,68; in experiment [1] (Figure S10a replicate 1), -67,48 to -40,38; in experiment [1] (Figure S10a replicate 2) it was -89,07 to -45,54; in experiment [1] (Figure S10a replicate 3), -92,21 to -59,25. In experiment [1] (HeLa wild-type, 300 nM MMC 24 h, 10 µM inhibitor), the “effect on MMC-induced DPP9-BRCA2 PLA events” value is recorded as “significant reduction in the number of MMC-induced PLA events”. This molecule returned an IC50 against PREP of over 50 µM. In addition, the PREP activity on PREP (c 1562.5 nM) was 98.7862% and 85.8025% and 104.946%; on PREP (c 3125 nM), 105.742% and 108.717% and 107.921%; on PREP (c 6250 nM), 96.1256% and 97.1517% and 97.4675%; on PREP (c 25000 nM) it was 92.3447% and 104.519% and 98.6461%; on PREP (c 50000 nM), 66.9978% and 69.9305% and 64.8732%; on PREP (c 100000 nM), 38.3396% and 47.6921% and 43.692%. Besides, the “activity against PREP” value on PREP (within the nanomolar and low micromolar range (< 50 µM)) is recorded as “no activity against PREP”.

`C#CCCCP(=O)(OCC)N1CCCC(N)C1=O.O=C(O)C(F)(F)F` (mixture of isomers) [Compound 9]: the “Log2-fold change (9/DMSO)” value came to 0.9479 in experiment [2] and 0.0845 in experiment [3]. Also, half-maximal inhibition on PREP (IC50) was put at 13.4 µM. Also, the PREP activity is 90.6956% and 100.18% and 91.6611% on PREP (c 1562.5 nM); 81.4016% and 83.8359% and 86.7341% on PREP (c 3125 nM); 70.1184% and 68.121% and 70.2915% on PREP (c 6250 nM); 42.6998% and 39.4794% and 39.8185% on PREP (c 25000 nM); 17.1276% and 17.8294% and 21.3954% on PREP (c 50000 nM); 12.8608% and 13.0915% and 11.6555% at PREP (c 100000 nM).
